Here are results for five compounds from US5439902A, “14α, 16α-ethanoand 14α, 16α-etheno-estratrienes” (Schering Aktiengesellschaft, priority 1991, dated 1995).

The subject of one test is Estrogen-receptor. Briefly: Estrogen-receptor test (KF). In kind it is binding. Particulars: estradiol = 1.0.
Another test deals with vaginal epithelium. Briefly: Allen-Doisy test (vaginal smears, threshold at which 50% of the animals reach stage 3). In kind it is in vivo, ovariectomized rats. The following applies: for Allen-Doisy Test p.o. [ED50] / Allen-Doisy Test s.c. [ED50]: ovariectomized rats, one-time administration d1, smears d3-d5. Here is the method: In the Allen-Doisy test, an evaluation of vaginal smears in ovariectomized rats is performed on days 3-5 (d3-d5) after the one-time administration on day 1 (d1) of the test substance. The following cycle stages are distinguished:
1=diestrus (leukocytes and nucleated epithelial cells),
2=proestrus (nucleated epithelial cells),
3=estrus (denucleated horny plaques),
4=metestrus (denucleated horny plaques, leukocytes, epithelial cells).
After oral or subcutaneous administration, estrogenically active substances result in the proliferation of the vaginal epithelium and the hornification of superficial cell layers. As a threshold value, that amount of an estrogen is indicated in which 50% of the animals reach stage 3. Further, estrogens cause an increase of the uterus weight.

`C[C@]12CC[C@@H]3c4ccc(O)cc4CC[C@H]3[C@@]13C=C[C@H](C3)[C@H]2O` [14α,16α-etheno-estra-1,3,5(10)-triene-3,17α-diol]: the “Estrogen-receptor test (KF)” value in the test with Estrogen-receptor was 1.5.

Take `C[C@]12CC[C@@H]3c4ccc(O)cc4CC[C@H]3[C@@H]1CC[C@H]2O` [17α-Estradiol, reference compound]: in the test with Estrogen-receptor, the “Estrogen-receptor test (KF)” value is 46.0.

For `C[C@]12CC[C@@H]3c4ccc(O)cc4CC[C@H]3[C@@H]1CC[C@@H]2O` [Estradiol, reference compound], the “Estrogen-receptor test (KF)” value with Estrogen-receptor is recorded as 1.0.

In the case of `C[C@]12CC[C@@H]3c4ccc(O)cc4CC[C@H]3[C@@]13CC[C@H](C3)[C@@H]2O` [14α,16α-ethano-estra-1,3,5(10)-triene-3,17β-diol], the “Allen-Doisy Test p.o. [ED50]” value in the test with vaginal epithelium amounted to 1.0 μg/animal/day. Further, the “Allen-Doisy Test s.c. [ED50]” value in the test with vaginal epithelium (s.c.) is recorded as 0.1-0.3 μg/animal/day. Also, the “Estrogen-receptor test (KF)” value in the test on Estrogen-receptor was determined as 1.0.

`C[C@]12CC[C@@H]3c4ccc(O)cc4CC[C@H]3[C@@]13CC[C@H](C3)[C@H]2O` [14α,16α-ethano-estra-1,3,5(10)-triene-3,17α-diol]: the “Allen-Doisy Test p.o. [ED50]” value with vaginal epithelium was 3-10 μg/animal/day. Also, the “threshold value (50% of the animals reach stage 3)” value in the test on vaginal epithelium (s.c., rat, FIG. 1, threshold already exceeded after only 0.3 μg) is below 0.3 µg. In addition, in the test with vaginal epithelium (s.c.), the “Allen-Doisy Test s.c. [ED50]” value is 0.1-0.3 μg/animal/day. Also, the “Estrogen-receptor test (KF)” value in the test on Estrogen-receptor was 0.5.
